The source of these data is patent US12391657B2, “Small molecules that bind and/or modulate differentforms of tau oligomers” (The Board of Regents of the University of Texas System, priority 2019, dated 2025).

The target in the test is T1, recombinant tau oligomers (TauO) (Homo sapiens, UniProt P10636).
T1 construct: made in house
The test is described as follows: Dot blot of recombinant tau oligomers with and without compounds. The class given is biochemical. To be noted: curcumin. Here is the method: The dot blot assay was performed as previously described (Lasagna-Reeves, Castillo-Carranza et al. 2010), to detect tau oligomers in the absence and presence of small molecules. Briefly, 1.5 μl of each end-product reaction was applied onto nitrocellulose membranes and then blocked with 10% nonfat milk in TBS-T overnight at 4° C. Next day, membranes were probed with T22 (1:250) for immunoreactivity with tau oligomers and Tau5 (1:10000) for total tau, diluted in 5% nonfat milk for 1 hour at RT. Membranes were then washed three time with TBS-T and incubated with horseradish peroxidase-conjugated IgG anti-rabbit (1:10000) and anti-mouse (1:10000) secondary antibodies to detect, T22 and Tau5, respectively. Blots were then washed three times in TBS-T and exposed to ECL plus (GE Healthcare) was used for signal detection. Densitometric analysis of each band was quantified using Image J.
Compounds were dissolved in ETOH 75%/DMSO (5:1) at a final concentration of 5 mM and diluted in 1× PBS or ddH2O for incubation or toxicity assay (final concentration 5 μM). […]
Densitometric analysis of each band was quantified using Image J and analyzed by two-way ANOVA followed by Dunnett's multiple comparisons test, performed using GraphPad Prism 6.01.

Entries after “also recorded” stand apart in the source; their conditions may differ.

T1 sequence (P10636 1-441 isoform P10636-8): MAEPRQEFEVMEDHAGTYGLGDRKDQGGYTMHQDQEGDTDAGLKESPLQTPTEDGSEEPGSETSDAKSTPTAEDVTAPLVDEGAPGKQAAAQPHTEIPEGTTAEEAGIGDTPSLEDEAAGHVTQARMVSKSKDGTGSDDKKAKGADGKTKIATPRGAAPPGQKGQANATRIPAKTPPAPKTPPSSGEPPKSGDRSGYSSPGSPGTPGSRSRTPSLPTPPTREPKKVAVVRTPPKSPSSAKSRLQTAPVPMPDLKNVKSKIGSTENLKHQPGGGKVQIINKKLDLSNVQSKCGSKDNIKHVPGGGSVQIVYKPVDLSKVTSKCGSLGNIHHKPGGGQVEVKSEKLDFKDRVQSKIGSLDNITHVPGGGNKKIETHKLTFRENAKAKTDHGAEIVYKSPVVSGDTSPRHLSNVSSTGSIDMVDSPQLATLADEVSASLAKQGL

Consider `COc1cc(/C=C/C(=O)CC(=O)/C=C/c2ccc(O)c(OC)c2)ccc1O` [curcumin], for which the “oligomeric tau level, dot blot” value is recorded as “decreased levels of oligomeric tau; also recorded: significant decrease in oligomers”.
